Where “and” joins values, the source holds several entries; their conditions need not be identical. Equal values may be shown once.
Assay: xn = mol fraction of the nth substance listed

COC(=O)c1ccccc1 + CCCCCCCCCC
101 kPa
Conditions	viscosity [mPa·s]
298.15 K, x2 = 0.0262	1.743
298.15 K, x2 = 0.0672	1.629
298.15 K, x2 = 0.1282	1.488
298.15 K, x2 = 0.172	1.406
298.15 K, x2 = 0.2455	1.29
298.15 K, x2 = 0.2831	1.234
298.15 K, x2 = 0.3238	1.184
298.15 K, x2 = 0.3645	1.141
298.15 K, x2 = 0.4095	1.095
298.15 K, x2 = 0.458	1.05
298.15 K, x2 = 0.5093	1.012
298.15 K, x2 = 0.563	0.972
298.15 K, x2 = 0.6077	0.946
298.15 K, x2 = 0.6694	0.915
298.15 K, x2 = 0.7276	0.891
298.15 K, x2 = 0.8044	0.868
298.15 K, x2 = 0.8571	0.855
298.15 K, x2 = 0.9293	0.845
308.15 K, x2 = 0.0467	1.4
308.15 K, x2 = 0.0764	1.34
308.15 K, x2 = 0.1148	1.271
308.15 K, x2 = 0.1464	1.219
308.15 K, x2 = 0.1853	1.163
308.15 K, x2 = 0.2147	1.12
308.15 K, x2 = 0.2537	1.076
308.15 K, x2 = 0.2939	1.031
308.15 K, x2 = 0.3391	0.988
308.15 K, x2 = 0.3803	0.956
308.15 K, x2 = 0.429	0.922
308.15 K, x2 = 0.4756	0.894
308.15 K, x2 = 0.5274	0.866
308.15 K, x2 = 0.575	0.841
308.15 K, x2 = 0.6318	0.816
308.15 K, x2 = 0.6926	0.79
308.15 K, x2 = 0.7434	0.775
308.15 K, x2 = 0.8116	0.759
308.15 K, x2 = 0.887	0.747
318.15 K, x2 = 0.0153	1.249
318.15 K, x2 = 0.0485	1.196
318.15 K, x2 = 0.0774	1.151
318.15 K, x2 = 0.113	1.101
318.15 K, x2 = 0.1467	1.058
318.15 K, x2 = 0.1837	1.015
318.15 K, x2 = 0.2171	0.977
318.15 K, x2 = 0.2582	0.936
318.15 K, x2 = 0.2931	0.903
318.15 K, x2 = 0.3395	0.863
318.15 K, x2 = 0.3892	0.826
318.15 K, x2 = 0.4363	0.795
318.15 K, x2 = 0.4972	0.76
318.15 K, x2 = 0.5486	0.734
318.15 K, x2 = 0.6025	0.713
318.15 K, x2 = 0.6669	0.692
318.15 K, x2 = 0.7208	0.678
318.15 K, x2 = 0.7971	0.663
318.15 K, x2 = 0.8627	0.655

CC(C)CC(C)C + CCCCCCCCCCCC
101 kPa, x1 = 0.5
Conditions	viscosity [mPa·s]
298 K	0.7489
318 K	0.5809

CC(C)c1cc(C(C)C)cc(C(C)C)c1 + CCCCCCCCCCCC
viscosity [mPa·s], 102 kPa
Conditions	x1 = 0.0997	x1 = 0.2002	x1 = 0.3009	x1 = 0.4002	x1 = 0.5003	x1 = 0.6001	x1 = 0.7001	x1 = 0.8002	x1 = 0.8999
293.15 K	1.57	1.67	1.8	1.94	2.14	2.37	2.67	3.05	3.51
303.15 K	1.31	1.39	1.48	1.59	1.73	1.89	2.09	2.35	2.66
313.15 K	1.11	1.17	1.24	1.32	1.42	1.54	1.69	1.86	2.08
323.15 K	0.956	1	1.05	1.12	1.19	1.28	1.39	1.52	1.67

CCOC(=O)CCl + CCCCCCCCCCCC
viscosity [mPa·s], 101.33 kPa
Conditions	x1 = 0.0961	x1 = 0.2041	x1 = 0.3012	x1 = 0.4005	x1 = 0.5029	x1 = 0.6026	x1 = 0.7029	x1 = 0.804	x1 = 0.9017
298.15 K	1.25	1.197	1.159	1.14	1.127	1.116	1.105	1.101	1.099
303.15 K	1.149	1.094	1.062	1.041	1.027	1.029	1.015	0.994	0.985
308.15 K	1.054	1.019	0.979	0.96	0.946	0.94	0.93	0.927	0.929

COC(=O)c1ccccc1 + CCCCCCCCCCCC
101 kPa
Conditions	viscosity [mPa·s]
298.15 K, x2 = 0.082	1.662
298.15 K, x2 = 0.1173	1.604
298.15 K, x2 = 0.144	1.569
298.15 K, x2 = 0.1894	1.521
298.15 K, x2 = 0.2155	1.489
298.15 K, x2 = 0.2495	1.456
298.15 K, x2 = 0.2908	1.424
298.15 K, x2 = 0.3295	1.395
298.15 K, x2 = 0.3708	1.367
298.15 K, x2 = 0.4625	1.325
298.15 K, x2 = 0.5803	1.295
298.15 K, x2 = 0.6336	1.286
298.15 K, x2 = 0.6963	1.278
298.15 K, x2 = 0.7551	1.279
298.15 K, x2 = 0.837	1.291
298.15 K, x2 = 0.9197	1.314
308.15 K, x2 = 0.0354	1.452
308.15 K, x2 = 0.0681	1.412
308.15 K, x2 = 0.0984	1.376
308.15 K, x2 = 0.126	1.347
308.15 K, x2 = 0.1623	1.311
308.15 K, x2 = 0.1958	1.282
308.15 K, x2 = 0.2384	1.248
308.15 K, x2 = 0.2693	1.226
308.15 K, x2 = 0.3062	1.203
308.15 K, x2 = 0.3476	1.182
308.15 K, x2 = 0.3895	1.164
308.15 K, x2 = 0.4361	1.146
308.15 K, x2 = 0.485	1.131
308.15 K, x2 = 0.5382	1.12
308.15 K, x2 = 0.5886	1.112
308.15 K, x2 = 0.65	1.108
308.15 K, x2 = 0.7204	1.107
308.15 K, x2 = 0.7849	1.11
308.15 K, x2 = 0.8845	1.124
318.15 K, x2 = 0.0445	1.219
318.15 K, x2 = 0.0506	1.213
318.15 K, x2 = 0.0779	1.183
318.15 K, x2 = 0.1097	1.152
318.15 K, x2 = 0.1388	1.126
318.15 K, x2 = 0.1737	1.097
318.15 K, x2 = 0.2067	1.072
318.15 K, x2 = 0.2449	1.048
318.15 K, x2 = 0.2814	1.025
318.15 K, x2 = 0.3256	1.001
318.15 K, x2 = 0.3648	0.983
318.15 K, x2 = 0.4153	0.964
318.15 K, x2 = 0.4635	0.95
318.15 K, x2 = 0.5194	0.938
318.15 K, x2 = 0.5726	0.931
318.15 K, x2 = 0.6372	0.926
318.15 K, x2 = 0.7	0.924
318.15 K, x2 = 0.7739	0.929
318.15 K, x2 = 0.8468	0.938

c1ccc2c(c1)CCCC2 + CCCCCCCCCCCC
323.15 K, 100 kPa
Conditions	viscosity
x1 = 0.399	0.965 mPa·s and 0.964 mPa·s
x1 = 0.714	1.06 mPa·s
